Results from patent publication US6762190B2, “Thienylalanine derivatives as inhibitors of cell adhesion” (Aventis Pharma S.A. Deutschland GmbH Genentech, Inc., priority 1999, dated 2004).

Key:
[1] = target: 293 cells cotransfected with αv and β3 subunits of the vitronectin receptor αvβ3, binding to human vitronectin (Vn) (Homo sapiens, UniProt P05106+P06756); test: Vitronectin/293 cell test (inhibition of binding of 293 cells to human vitronectin); type: cell-based; conditions: inhibition of binding of αvβ3-expressing 293 cells to human vitronectin
Chain of 293 cells cotransfected with αv and β3 subunits of the vitronectin receptor αvβ3, binding to human vitronectin (Vn) (P05106 whole entry): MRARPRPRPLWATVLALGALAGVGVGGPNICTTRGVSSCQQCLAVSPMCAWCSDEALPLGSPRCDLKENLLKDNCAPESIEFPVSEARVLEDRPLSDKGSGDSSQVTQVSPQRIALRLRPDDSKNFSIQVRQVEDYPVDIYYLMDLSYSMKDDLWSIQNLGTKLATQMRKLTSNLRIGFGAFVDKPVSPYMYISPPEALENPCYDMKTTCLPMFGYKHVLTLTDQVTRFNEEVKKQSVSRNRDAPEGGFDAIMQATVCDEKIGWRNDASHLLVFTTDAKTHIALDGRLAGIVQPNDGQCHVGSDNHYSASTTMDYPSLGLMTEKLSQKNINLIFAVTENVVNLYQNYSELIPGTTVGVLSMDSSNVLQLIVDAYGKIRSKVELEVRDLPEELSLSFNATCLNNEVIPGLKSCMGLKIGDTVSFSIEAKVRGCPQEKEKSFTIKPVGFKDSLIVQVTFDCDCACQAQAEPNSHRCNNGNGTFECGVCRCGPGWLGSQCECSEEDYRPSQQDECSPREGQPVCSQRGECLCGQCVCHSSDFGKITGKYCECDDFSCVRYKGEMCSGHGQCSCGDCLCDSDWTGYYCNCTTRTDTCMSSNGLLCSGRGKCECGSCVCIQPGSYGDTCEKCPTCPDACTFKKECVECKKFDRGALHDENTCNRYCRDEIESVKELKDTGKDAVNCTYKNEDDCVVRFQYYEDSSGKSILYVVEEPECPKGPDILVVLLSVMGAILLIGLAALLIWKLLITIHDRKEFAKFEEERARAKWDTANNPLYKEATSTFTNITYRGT
Chain of 293 cells cotransfected with αv and β3 subunits of the vitronectin receptor αvβ3, binding to human vitronectin (Vn) (P06756 whole entry): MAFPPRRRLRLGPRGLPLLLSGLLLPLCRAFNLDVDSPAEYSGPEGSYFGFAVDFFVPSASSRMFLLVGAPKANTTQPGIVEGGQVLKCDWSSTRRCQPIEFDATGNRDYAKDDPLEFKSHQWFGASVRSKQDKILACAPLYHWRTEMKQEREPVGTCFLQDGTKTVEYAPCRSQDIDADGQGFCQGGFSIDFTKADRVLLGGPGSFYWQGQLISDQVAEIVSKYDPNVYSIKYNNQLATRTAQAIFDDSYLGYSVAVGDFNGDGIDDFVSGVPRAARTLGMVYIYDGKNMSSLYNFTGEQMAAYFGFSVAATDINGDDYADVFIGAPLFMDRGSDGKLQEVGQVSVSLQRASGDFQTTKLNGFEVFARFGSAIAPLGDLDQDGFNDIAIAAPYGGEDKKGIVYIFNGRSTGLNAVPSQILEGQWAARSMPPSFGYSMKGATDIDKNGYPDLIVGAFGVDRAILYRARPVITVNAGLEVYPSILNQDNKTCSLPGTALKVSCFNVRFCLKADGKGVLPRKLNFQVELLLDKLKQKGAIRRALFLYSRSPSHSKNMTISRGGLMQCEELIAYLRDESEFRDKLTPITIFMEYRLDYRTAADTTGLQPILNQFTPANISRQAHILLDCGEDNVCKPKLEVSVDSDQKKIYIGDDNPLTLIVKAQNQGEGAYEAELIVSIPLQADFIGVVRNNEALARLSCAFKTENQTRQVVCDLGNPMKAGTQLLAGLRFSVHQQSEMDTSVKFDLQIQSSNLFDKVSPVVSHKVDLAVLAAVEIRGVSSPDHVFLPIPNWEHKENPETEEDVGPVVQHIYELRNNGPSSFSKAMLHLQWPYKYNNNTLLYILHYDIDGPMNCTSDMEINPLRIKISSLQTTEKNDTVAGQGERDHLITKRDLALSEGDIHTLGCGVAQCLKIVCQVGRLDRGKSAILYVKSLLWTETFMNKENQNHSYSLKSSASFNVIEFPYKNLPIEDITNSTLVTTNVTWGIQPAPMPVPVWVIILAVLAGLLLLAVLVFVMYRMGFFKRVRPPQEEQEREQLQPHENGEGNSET
Description: 2) Vitronectin/293 Cell Test
In this test the inhibition of binding of 293 cells to human vitronectin (Vn) by the compounds of the invention is determined (the test method is abbreviated as “Vn/293 cell test” in the listing of the test results).
Purification of Human Vitronectin
Human vitronectin was isolated from human plasma and purified by affinity chromatography according to the method of Yatohgo et al., Cell Structure and Function 23 (1988) 281.
293 cells, a human embryonic kidney cell line, which were cotransfected with DNA sequences for the αv and β3 subunits of the vitronectin receptor αvβ3, were selected for a high rate of expression (>500,000 αvβ3 receptors/cell) according to the FACS method. The selected cells were cultured and sorted again by means of FACS in order to obtain a stable cell line (15 D) with expression rates >1,000,000 copies of αvβ3 per cell.
A Linbro 96-well tissue culture plate with a flat bottom was coated overnight at 4° C. with human vitronectin (0.01 mg/ml, 0.05 ml/well) in phosphate-buffered saline solution (PBS) and then blocked with 0.5% strength BSA (bovine serum albumin). Solutions of the test substances from 10^−10 mol/l to 2×10^−3 mol/l in glucose-containing DMEM medium were prepared and 0.05 ml/well of the solution were added to the plate in each case. The cells which expressed high levels of αvβ3 (for example 15 D) were suspended in glucose-containing DMEM medium and the suspension was adjusted to a content of 25,000 cells/0.05 ml of medium. 0.05 ml of this cell suspension was added to each well and the plate was incubated at 37° C. for 90 min. The plate was washed 3 times with warm PBS in order to remove unbound cells. The bound cells were lyzed in citrate buffer (25 mM, pH 5.0) which contained 0.25% Triton X-100. The hexoseamidase substrate p-nitrophenyl-N-acetyl-β-D-glucosaminide was then added and the plate was incubated at 37° C. for 90 min. The reaction was stopped with a glycine (50 mM)/EDTA (5 mM) buffer (pH 10.4) and the absorption of each well was measured at 405 to 650 nm. The data were analyzed according to standard methods.

[2] = target: T1, human vitronectin receptor (VnR) αvβ3 (Homo sapiens, UniProt P05106+P06756); test: Kistrin binding assay (αvβ3 ELISA test, K/VnR); conditions: inhibition of binding of kistrin to human vitronectin receptor
T1 construct: Human vitronectin receptor was obtained from the human placenta according to the method of Pytela et al; from tissue; host or cells: human placenta
T1 sequence (P06756 31-889 limits assumed): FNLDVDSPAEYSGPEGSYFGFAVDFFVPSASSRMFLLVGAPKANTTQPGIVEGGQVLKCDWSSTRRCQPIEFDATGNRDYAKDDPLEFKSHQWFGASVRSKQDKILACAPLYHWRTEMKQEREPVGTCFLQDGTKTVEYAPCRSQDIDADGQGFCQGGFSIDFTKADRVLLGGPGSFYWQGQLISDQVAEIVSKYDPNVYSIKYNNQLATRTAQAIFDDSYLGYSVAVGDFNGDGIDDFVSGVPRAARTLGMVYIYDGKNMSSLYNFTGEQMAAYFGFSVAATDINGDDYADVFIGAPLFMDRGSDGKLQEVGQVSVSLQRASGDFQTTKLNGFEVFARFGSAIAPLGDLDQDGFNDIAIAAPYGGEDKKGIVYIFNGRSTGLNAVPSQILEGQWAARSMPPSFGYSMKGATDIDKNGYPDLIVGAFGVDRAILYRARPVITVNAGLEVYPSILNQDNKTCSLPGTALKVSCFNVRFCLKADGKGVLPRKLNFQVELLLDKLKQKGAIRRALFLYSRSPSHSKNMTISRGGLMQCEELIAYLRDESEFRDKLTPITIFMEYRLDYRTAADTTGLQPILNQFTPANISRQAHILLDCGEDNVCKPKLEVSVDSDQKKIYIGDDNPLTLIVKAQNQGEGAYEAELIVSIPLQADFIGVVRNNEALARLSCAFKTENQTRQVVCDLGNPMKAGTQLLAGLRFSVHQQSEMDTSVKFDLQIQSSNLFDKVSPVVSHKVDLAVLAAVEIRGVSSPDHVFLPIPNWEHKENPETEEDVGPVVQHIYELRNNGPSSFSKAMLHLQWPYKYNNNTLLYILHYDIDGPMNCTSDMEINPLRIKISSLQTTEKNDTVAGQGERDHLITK
T1 sequence (P06756 891-1048 partner limits assumed): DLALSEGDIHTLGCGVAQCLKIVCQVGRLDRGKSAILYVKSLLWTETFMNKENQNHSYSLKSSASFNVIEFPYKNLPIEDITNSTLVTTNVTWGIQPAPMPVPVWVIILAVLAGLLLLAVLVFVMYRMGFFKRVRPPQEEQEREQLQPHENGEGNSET
T1 sequence (P05106 27-788): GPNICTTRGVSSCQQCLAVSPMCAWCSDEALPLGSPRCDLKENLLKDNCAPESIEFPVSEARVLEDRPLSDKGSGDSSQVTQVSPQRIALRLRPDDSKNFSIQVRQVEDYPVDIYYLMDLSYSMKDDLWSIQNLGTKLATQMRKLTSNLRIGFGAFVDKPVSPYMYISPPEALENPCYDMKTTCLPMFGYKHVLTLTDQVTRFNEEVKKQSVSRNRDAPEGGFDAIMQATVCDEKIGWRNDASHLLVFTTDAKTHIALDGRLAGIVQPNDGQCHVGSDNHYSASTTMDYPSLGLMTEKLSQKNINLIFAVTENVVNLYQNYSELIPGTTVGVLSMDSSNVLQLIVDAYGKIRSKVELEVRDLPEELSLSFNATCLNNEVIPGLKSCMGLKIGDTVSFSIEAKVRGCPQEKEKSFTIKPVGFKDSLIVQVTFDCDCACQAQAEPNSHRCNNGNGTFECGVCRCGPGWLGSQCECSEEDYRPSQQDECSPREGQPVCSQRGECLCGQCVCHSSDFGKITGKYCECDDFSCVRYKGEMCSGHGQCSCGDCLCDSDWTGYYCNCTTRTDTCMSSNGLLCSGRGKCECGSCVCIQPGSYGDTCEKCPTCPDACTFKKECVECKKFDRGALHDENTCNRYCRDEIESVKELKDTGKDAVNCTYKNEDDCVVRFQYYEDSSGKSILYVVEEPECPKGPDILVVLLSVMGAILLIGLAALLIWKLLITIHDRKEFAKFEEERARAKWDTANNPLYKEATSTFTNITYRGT
Description: The inhibition of the binding of kistrin to human vitronectin receptor (VnR) described below is a test method by which the antagonistic action of the compounds of the invention on the vitronectin receptor αvβ3 can be determined (αvβ3 ELISA Test; the test method is abbreviated as “K/VnR” in the listing of the test results).
Kistrin was purified according to the methods of Dennis et al., as described in Proc. Natl. Acad. Sci. USA 87 (1989) 2471 and Proteins: Structure, Function and Genetics 15(1993)312.
Purification of Human Vitronectin Receptor (αvβ3)
Human vitronectin receptor was obtained from the human placenta according to the method of Pytela et al., Methods Enzymol. 144 (1987) 475. Human vitronectin receptor αvβ3 can also be obtained from some cell lines (for example from 293 cells, a human embryonic kidney cell line) which are cotransfected with DNA sequences for both subunits αv and β3 of the vitronectin receptor. The subunits were extracted with octyl glycoside and then chromatographed through concanavalin A, heparin-Sepharose and S-300.
Murine monoclonal antibodies which are specific for the β3 subunits of the vitronectin receptor, were prepared according to the method of Newman et al., Blood (1985) 227, or by a similar process. The rabbit Fab 2 anti-mouse Fc conjugate to horseradish peroxidase (anti-mouse Fc HRP) was obtained from Pel Freeze (Catalog No. 715 305-1).
The ability of substances to inhibit the binding of kistrin to the vitronectin receptor can be determined using an ELISA test. For this purpose, Nunc 96-well microtiter plates were coated with a solution of kistrin (0.002 mg/ml) according to the method of Dennis et al., as described in Proteins: Structure, Function and Genetics 15 (1993) 312. The plates were then washed twice with PBS/0.05% Tween-20 and blocked by incubating (60 min) with bovine serum albumin (BSA, 0.5%, RIA grade or better) in buffer solution (Tris-HCl (50 mM), NaCl (100 mM), MgCl2 (1 mM), CaCl2 (1 mM), MnCl2 (1 mM), pH 7). Solutions of known inhibitors and of the test substances were prepared in concentrations from 2×10^−12 to 2×10^−6 mol/l in assay buffer (BSA (0.5%, RIA grade or better); Tris-HCl (50 mM), NaCl (100 mM), MgCl2 (1 mM), CaCl2 (1 mM), MnCl2 (1 mM), pH 7). The blocked plates were emptied, and in each case 0.025 ml of this solution which contained a defined concentration (2×10^−12 to 2×10^−6 mol/l) either of a known inhibitor or of a test substance, were added to each well. 0.025 ml of a solution of the vitronectin receptor in assay buffer (0.03 mg/ml) is pipetted into each well of the plate and the plate was incubated at room temperature for 60-180 min on a shaker. In the meantime, a solution (6 ml/plate) of a murine monoclonal antibody specific for the β3 subunit of the vitronectin receptor was prepared in assay buffer (0.0015 mg/ml). A second rabbit antibody (0.001 ml of stock solution/6 ml of the murine monoclonal anti-β3 antibody solution) which is an anti-mouse Fc HRP antibody conjugate was added to this solution, and this mixture of murine anti-β3 antibody and rabbit anti-mouse Fc HRP antibody conjugate was incubated during the time of the receptor-inhibitor incubation. The test plates were washed four times with PBS solution which contains 0.05% Tween-20, and in each case 0.05 ml/well of the antibody mixture was pipetted into each well of the plate and incubated for 60-180 min. The plate was washed four times with PBS/0.05% Tween-20 and then developed with 0.05 ml/well of a PBS solution which contained 0.67 mg/ml of o-phenylenediamine and 0.012% of H2O2. Alternatively to this, o-phenylenediamine can be employed in a buffer (pH 5) which contains Na3PO4 and citric acid. The color development was stopped using 1 N H2SO4 (0.05 ml/well). The absorption for each well was measured at 492-405 nm and the data were evaluated by standard methods.

IC50 [1] [nM]	IC50 [2] [nM]	SMILES
690	40	O=C(CCC/C=C/c1ccc(C[C@H](NC(=O)OCc2ccccc2)C(=O)O)s1)NC1=NCCCN1 [Example 14, (2S)-2-Benzyloxycarbonylamino-3-(5-(5-(1,4,5,6-tetrahydropyrimidin-2-ylcarbamoyl)-pent-1-enyl)-thiophen-2-yl)-propionic acid]
210	97	O=C(CCCCCc1ccc(C[C@H](NC(=O)OCc2ccccc2)C(=O)O)s1)NC1=NCCCN1 [Example 13, (2S)-2-Benzyloxycarbonylamino-3-(5-(5-(1,4,5,6-tetrahydropyrimidin-2-ylcarbamoyl)-pentyl)-thiophen-2-yl)-propionic acid]
110	9	O=C(CCCCc1ccc(C[C@H](NC(=O)OCc2ccccc2)C(=O)O)s1)NC1=NCCCN1 [Example 11, (2S)-2-Benzyloxycarbonylamino-3-(5-(4-(1,4,5,6-tetrahydropyrimidin-2-ylcarbamoyl)-butyl)-thiophen-2-yl)-propionic acid]
580	35	O=C(CC/C=C/c1ccc(C[C@H](NC(=O)OCc2ccccc2)C(=O)O)s1)NC1=NCCCN1 [Example 15, (2S)-2-Benzyloxycarbonylamino-3-(5-(4-(1,4,5,6-tetrahydropyrimidin-2-ylcarbamoyl)-but-1-enyl)-thiophen-2-yl)-propionic acid]
6900	95	CC(C)(C)c1ccc(S(=O)(=O)N[C@@H](Cc2ccc(CCCCC(=O)NC3=NCCCN3)s2)C(=O)O)cc1 [Example 10, (2S)-2-(4-tert-Butylbenzenesulfonylamino)-3-(5-(4-(1,4,5,6-tetrahydropyrimidin-2-ylcarbamoyl)-butyl)-thiophen-2-yl)-propionic acid]
220	23	O=C(CCCCc1ccc(C[C@H](NC(=O)OCC23CC4CC(CC(C4)C2)C3)C(=O)O)s1)NC1=NCCCN1 [Example 12, (2S)-2-(Adamantan-1-ylmethoxycarbonylamino)-3-(5-(4-(1,4,5,6-tetrahydropyrimidin-2-ylcarbamoyl)-butyl)-thiophen-2-yl)-propionic acid]
1800	46	CCCCS(=O)(=O)N[C@@H](Cc1ccc(CCCCC(=O)NC2=NCCCN2)s1)C(=O)O [Example 9, (2S)-2-(Butane-1-sulfonylamino)-3-(5-(4-(1,4,5,6-tetrahydropyrimidin-2-ylcarbamoyl)-butyl)-thiopen-2-yl)-propionic acid]

The remaining lines, values behind:

SMILES	IC50 [1] [nM]	IC50 [2] [nM]
O=C(CCCCc1ccc(C[C@H](NS(=O)(=O)c2ccc(C(F)(F)F)cc2)C(=O)O)s1)NC1=NCCCN1 [Example 6, (2S)-3-(5-(4-(1,4,5,6-Tetrahydropyrimidin-2-ylcarbamoyl)-butyl)-thiophen-2-yl)-2-(4-trifluoromethylbenzenesulfonylamino)-propionic acid]	2000	28
CCCS(=O)(=O)N[C@@H](Cc1ccc(CCCCC(=O)NC2=NCCCN2)s1)C(=O)O [Example 8, (2S)-2-(Propane-1-sulfonylamino)-3-(5-(4-(1,4,5,6-tetrahydropyrimidin-2-ylcarbamoyl)-butyl)-thiophen-2-yl)-propionic acid]	1000	60
O=C(CCCCc1ccc(C[C@H](NS(=O)(=O)c2ccc3ccccc3c2)C(=O)O)s1)NC1=NCCCN1 [Example 2, (2S)-2-(Naphthalene-2-sulfonylamino)-3-(5-(4-(1,4,5,6-tetrahydropyrimidin-2-ylcarbamoyl)-butyl)-thiophen-2-yl)-propionic acid]	330	15
O=C(CCCCc1ccc(C[C@H](NS(=O)(=O)c2cccc3ccccc23)C(=O)O)s1)NC1=NCCCN1 [Example 1, (2S)-2-(Naphthalene-1-sulfonylamino)-3-(5-(4-(1,4,5,6-tetrahydropyrimidin-2-ylcarbamoyl)-butyl)-thiophen-2-yl)-propionic Acid]	420	23
O=C(CCCCc1ccc(C[C@H](NS(=O)(=O)c2ccc(Cl)cc2)C(=O)O)s1)NC1=NCCCN1 [Example 4, (2S)-2-(4-Chlorobenzenesulfonylamino)-3-(5-(4-(1,4,5,6-tetrahydropyrimidin-2-ylcarbamoyl)-butyl)-thiophen-2-yl)-propionic acid]	850	12
O=C(CCCCc1ccc(C[C@H](NS(=O)(=O)c2ccccc2)C(=O)O)s1)NC1=NCCCN1 [Example 3, (2S)-2-Benzenesulfonylamino-3-(5-(4-(1,4,5,6-tetrahydropyrimidin-2-ylcarbamoyl)-butyl)-thiophen-2-yl)-propionic acid]	1000	9.5
O=C(CCCCc1ccc(C[C@H](NS(=O)(=O)CC(F)(F)F)C(=O)O)s1)NC1=NCCCN1 [Example 7, (2S)-3-(5-(4-(1,4,5,6-Tetrahydropyrimidin-2-ylcarbamoyl)-butyl)-thiophen-2-yl)-2-(2,2,2-trifluoroethanesulfonylamino)-propionic acid]	400	11
O=C(CCCCc1ccc(C[C@H](NS(=O)(=O)c2cccc(Cl)c2)C(=O)O)s1)NC1=NCCCN1 [Example 5, (2S)-2-(3-Chlorobenzenesulfonylamino)-3-(5-(4-(1,4,5,6-tetrahydropyrimidin-2-ylcarbamoyl)-butyl)-thiophen-2-yl)-propionic acid]	420	15
